Here are results for one molecule from patent US11529302B2, “Composition, artificial nail composition, nail decoration material, artificial nail, stored container, image forming apparatus, and image forming method” (RICOH COMPANY, LTD., priority 2018, dated 2022).

The nature of this series: Solubility of polymerization initiator in the acrylamide compound having an ester structure. Type of series: physicochemical.

Molecules are shown by their SMILES.

Consider `Cc1cc(C)c(C(=O)P(=O)(C(=O)c2c(C)cc(C)cc2C)c2ccccc2)c(C)c1` [B2-1, Bis(2,4,6-trimethylbenzoyl) phenyl phosphine oxide], for which the “solubility in the acrylamide compound having an ester structure” value is given as “poor solubility”.
